According to ChEMBL document CHEMBL1143427, “Interactions of ceftobiprole with beta-lactamases from molecular classes A to D” (Antimicrob Agents Chemother, 2007):

Assays:
[1] = test system: Klebsiella pneumoniae; assay: Activity of Klebsiella pneumoniae TEM26 assessed as drug hydrolysis by spectrophotometry
[2] = test system: Klebsiella pneumoniae; assay: Activity of Klebsiella pneumoniae TEM26 assessed as drug hydrolysis by spectrophotometry relative to cephaloridine; set-up: scale not given: the % may be the effect or the level left
[3] = biological target: Beta-lactamase (Pseudomonas aeruginosa (strain ATCC 15692 / PAO1 / 1C / PRS 101 / LMG12228)) (UniProt P24735); assay: Activity of Pseudomonas aeruginosa AmpC assessed as drug hydrolysis by spectrophotometry relative to cephaloridine; set-up: scale not given: the % may be the effect or the level left
Sequence of Beta-lactamase (Pseudomonas aeruginosa (strain ATCC 15692 / PAO1 / 1C / PRS 101 / LMG12228)) (P24735 27-397 limits assumed): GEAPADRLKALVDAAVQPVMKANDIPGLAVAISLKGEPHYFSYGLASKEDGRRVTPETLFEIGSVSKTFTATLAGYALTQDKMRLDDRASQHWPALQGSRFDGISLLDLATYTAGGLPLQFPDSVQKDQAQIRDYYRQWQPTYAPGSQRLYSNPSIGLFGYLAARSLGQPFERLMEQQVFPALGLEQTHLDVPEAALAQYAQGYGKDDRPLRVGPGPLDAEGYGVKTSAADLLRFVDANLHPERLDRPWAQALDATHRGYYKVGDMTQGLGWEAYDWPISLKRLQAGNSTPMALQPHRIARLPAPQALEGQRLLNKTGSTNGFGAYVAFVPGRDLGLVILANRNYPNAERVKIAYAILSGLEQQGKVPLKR

[4] = biological target: Beta-lactamase (Pseudomonas aeruginosa (strain ATCC 15692 / PAO1 / 1C / PRS 101 / LMG12228)) (UniProt P24735); assay: Activity of Pseudomonas aeruginosa 4352 AmpC assessed as drug hydrolysis by spectrophotometry relative to cephaloridine; set-up: scale not given: the % may be the effect or the level left
[5] = biological target: Beta-lactamase (Serratia marcescens) (UniProt P18539); assay: Activity of Serratia marcescens AmpC assessed as drug hydrolysis by spectrophotometry relative to cephaloridine; set-up: scale not given: the % may be the effect or the level left
Sequence of Beta-lactamase (Serratia marcescens) (P18539 whole entry): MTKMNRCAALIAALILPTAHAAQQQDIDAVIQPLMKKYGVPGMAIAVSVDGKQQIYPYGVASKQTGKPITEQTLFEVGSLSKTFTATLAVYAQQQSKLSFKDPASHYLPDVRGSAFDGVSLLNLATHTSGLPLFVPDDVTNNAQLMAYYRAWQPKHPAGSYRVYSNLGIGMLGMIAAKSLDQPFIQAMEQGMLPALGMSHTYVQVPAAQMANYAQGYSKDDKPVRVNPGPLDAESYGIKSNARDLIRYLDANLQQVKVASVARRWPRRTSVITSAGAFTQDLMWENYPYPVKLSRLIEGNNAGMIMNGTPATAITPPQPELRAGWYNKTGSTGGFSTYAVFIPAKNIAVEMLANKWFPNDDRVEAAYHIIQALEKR

[6] = biological target: Beta-lactamase (Serratia marcescens) (UniProt P18539); assay: Ratio of Kcat to Km of Serratia marcescens AmpC assessed as drug hydrolysis by spectrophotometry relative to cephaloridine; set-up: scale not given: the % may be the effect or the level left
[7] = biological target: Beta-lactamase (Pseudomonas aeruginosa (strain ATCC 15692 / PAO1 / 1C / PRS 101 / LMG12228)) (UniProt P24735); assay: Ratio of Kcat to Km of Pseudomonas aeruginosa AmpC assessed as drug hydrolysis by spectrophotometry relative to cephaloridine; set-up: scale not given: the % may be the effect or the level left
[8] = biological target: Beta-lactamase (Staphylococcus aureus) (UniProt P00807); assay: Ratio of Kcat to Km of Staphylococcus aureus betalactamase PC1 assessed as drug hydrolysis by spectrophotometry relative to cephaloridine; set-up: scale not given: the % may be the effect or the level left
Sequence of Beta-lactamase (Staphylococcus aureus) (P00807 whole entry): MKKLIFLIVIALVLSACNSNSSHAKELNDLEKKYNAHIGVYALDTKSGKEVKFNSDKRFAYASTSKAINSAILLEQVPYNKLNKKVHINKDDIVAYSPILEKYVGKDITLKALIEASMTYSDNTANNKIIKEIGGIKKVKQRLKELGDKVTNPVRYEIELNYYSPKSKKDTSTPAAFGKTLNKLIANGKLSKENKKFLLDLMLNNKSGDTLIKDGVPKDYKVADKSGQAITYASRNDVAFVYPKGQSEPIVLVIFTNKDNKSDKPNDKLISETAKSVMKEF

[9] = biological target: T1, Beta-lactamase (Klebsiella oxytoca) (UniProt Q8RT60); assay: Activity of Klebsiella oxytoca beta-lactamase K1 assessed as drug hydrolysis by spectrophotometry relative to cephaloridine; set-up: scale not given: the % may be the effect or the level left
T1 sequence (whole entry): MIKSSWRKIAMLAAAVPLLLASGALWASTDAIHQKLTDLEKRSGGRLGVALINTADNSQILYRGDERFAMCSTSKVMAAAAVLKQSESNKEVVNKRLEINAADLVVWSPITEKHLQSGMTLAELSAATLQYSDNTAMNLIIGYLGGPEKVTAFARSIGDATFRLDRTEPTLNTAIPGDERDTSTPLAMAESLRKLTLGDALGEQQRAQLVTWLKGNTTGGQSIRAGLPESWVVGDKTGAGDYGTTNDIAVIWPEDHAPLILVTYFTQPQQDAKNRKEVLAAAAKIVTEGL

[10] = biological target: T2, Beta-lactamase SHV-1 (Klebsiella pneumoniae) (UniProt P0AD64); assay: Activity of Klebsiella pneumoniae SHV1 assessed as drug hydrolysis by spectrophotometry relative to cephaloridine; set-up: scale not given: the % may be the effect or the level left
T2 sequence (whole entry): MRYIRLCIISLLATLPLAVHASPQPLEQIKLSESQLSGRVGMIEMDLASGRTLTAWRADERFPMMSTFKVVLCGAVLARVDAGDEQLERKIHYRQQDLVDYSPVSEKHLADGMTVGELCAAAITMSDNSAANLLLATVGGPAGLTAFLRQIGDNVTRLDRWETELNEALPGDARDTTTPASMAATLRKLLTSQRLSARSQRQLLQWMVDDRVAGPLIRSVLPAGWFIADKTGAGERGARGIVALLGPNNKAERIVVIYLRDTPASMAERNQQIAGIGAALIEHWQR

[11] = biological target: Beta-lactamase CTX-M (Escherichia coli) (UniProt Q9EXV5); assay: Activity of Escherichia coli CTX-M-15 assessed as drug hydrolysis by spectrophotometry relative to cephaloridine; set-up: scale not given: the % may be the effect or the level left
[12] = biological target: Beta-lactamase (Pseudomonas aeruginosa (strain ATCC 15692 / PAO1 / 1C / PRS 101 / LMG12228)) (UniProt P24735); assay: Ratio of Kcat to Km of Pseudomonas aeruginosa MK-1184 AmpC assessed as drug hydrolysis by spectrophotometry relative to cephaloridine; set-up: scale not given: the % may be the effect or the level left
[13] = biological target: T3, Beta-lactamase (Providencia stuartii) (UniProt O69773); assay: Ratio of Kcat to Km of Providencia stuartii AmpC assessed as drug hydrolysis by spectrophotometry relative to cephaloridine; set-up: scale not given: the % may be the effect or the level left
T3 sequence (whole entry): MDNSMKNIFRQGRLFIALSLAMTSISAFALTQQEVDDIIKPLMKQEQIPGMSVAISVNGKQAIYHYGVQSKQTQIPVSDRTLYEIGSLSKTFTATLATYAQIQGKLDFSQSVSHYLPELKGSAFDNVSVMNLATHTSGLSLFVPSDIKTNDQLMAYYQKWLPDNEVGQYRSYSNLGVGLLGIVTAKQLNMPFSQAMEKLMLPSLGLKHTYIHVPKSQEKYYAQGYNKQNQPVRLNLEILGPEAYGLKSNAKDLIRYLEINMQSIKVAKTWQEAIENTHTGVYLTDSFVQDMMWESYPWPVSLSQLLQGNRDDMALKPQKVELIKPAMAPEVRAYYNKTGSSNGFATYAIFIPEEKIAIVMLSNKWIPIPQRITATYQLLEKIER

[14] = biological target: Beta-lactamase CTX-M (Escherichia coli) (UniProt Q9EXV5); assay: Ratio of Kcat to Km of Escherichia coli CTX-M-15 assessed as drug hydrolysis by spectrophotometry relative to cephaloridine; set-up: scale not given: the % may be the effect or the level left
[15] = biological target: Beta-lactamase (Pseudomonas aeruginosa (strain ATCC 15692 / PAO1 / 1C / PRS 101 / LMG12228)) (UniProt P24735); assay: Ratio of Kcat to Km of Pseudomonas aeruginosa 18SH AmpC assessed as drug hydrolysis by spectrophotometry relative to cephaloridine; set-up: scale not given: the % may be the effect or the level left
[16] = biological target: T4, Carbapenem-hydrolyzing beta-lactamase SME-3 (Serratia marcescens) (UniProt Q6PRG8); assay: Activity of Serratia marcescens SME3 assessed as drug hydrolysis by spectrophotometry relative to cephaloridine; set-up: scale not given: the % may be the effect or the level left
T4 sequence (whole entry): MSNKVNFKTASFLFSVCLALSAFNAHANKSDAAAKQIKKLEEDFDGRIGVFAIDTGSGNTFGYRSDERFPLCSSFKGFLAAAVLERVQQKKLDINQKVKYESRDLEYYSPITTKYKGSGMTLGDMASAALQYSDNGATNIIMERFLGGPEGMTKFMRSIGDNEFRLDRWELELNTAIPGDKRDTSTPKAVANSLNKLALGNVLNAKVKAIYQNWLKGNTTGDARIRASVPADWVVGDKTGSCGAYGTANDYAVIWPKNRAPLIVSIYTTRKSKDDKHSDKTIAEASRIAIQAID

[17] = biological target: Beta-lactamase TEM (Escherichia coli) (UniProt P62593); assay: Activity of Escherichia coli TEM1 assessed as drug hydrolysis by spectrophotometry relative to cephaloridine; set-up: scale not given: the % may be the effect or the level left
Sequence of Beta-lactamase TEM (Escherichia coli) (P62593 whole entry): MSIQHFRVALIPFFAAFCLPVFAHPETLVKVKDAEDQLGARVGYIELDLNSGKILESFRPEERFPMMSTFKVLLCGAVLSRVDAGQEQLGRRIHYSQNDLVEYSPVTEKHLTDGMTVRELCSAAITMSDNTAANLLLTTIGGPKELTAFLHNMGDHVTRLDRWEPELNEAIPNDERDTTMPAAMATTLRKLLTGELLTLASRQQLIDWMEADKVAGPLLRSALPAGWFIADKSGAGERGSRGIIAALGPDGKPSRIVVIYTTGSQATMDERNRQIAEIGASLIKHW

[18] = biological target: Beta-lactamase TEM (Escherichia coli) (UniProt P62593); assay: Ratio of Kcat to Km of Escherichia coli TEM1 assessed as drug hydrolysis by spectrophotometry relative to cephaloridine; set-up: scale not given: the % may be the effect or the level left
[19] = biological target: Beta-lactamase (Pseudomonas aeruginosa (strain ATCC 15692 / PAO1 / 1C / PRS 101 / LMG12228)) (UniProt P24735); assay: Activity of Pseudomonas aeruginosa 18SH AmpC assessed as drug hydrolysis by spectrophotometry relative to cephaloridine; set-up: scale not given: the % may be the effect or the level left
[20] = biological target: Metallo beta-lactamase (Pseudomonas aeruginosa) (UniProt Q6TUJ4); assay: Ratio of Kcat to Km of Pseudomonas aeruginosa IMP1 assessed as drug hydrolysis by spectrophotometry relative to cephaloridine; set-up: scale not given: the % may be the effect or the level left
Sequence of Metallo beta-lactamase (Pseudomonas aeruginosa) (Q6TUJ4 as listed by the source): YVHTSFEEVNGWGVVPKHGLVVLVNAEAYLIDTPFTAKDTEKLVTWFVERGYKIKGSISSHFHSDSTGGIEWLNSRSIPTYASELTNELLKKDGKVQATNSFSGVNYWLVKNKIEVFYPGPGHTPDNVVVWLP

[21] = test system: Klebsiella pneumoniae; assay: Ratio of Kcat to Km of Klebsiella pneumoniae TEM26 assessed as drug hydrolysis by spectrophotometry relative to cephaloridine; set-up: scale not given: the % may be the effect or the level left
[22] = test system: Klebsiella pneumoniae; assay: Ratio of Kcat to Km of Klebsiella pneumoniae TEM26 assessed as drug hydrolysis by spectrophotometry
[23] = biological target: T1, Beta-lactamase (Klebsiella oxytoca); assay: Ratio of Kcat to Km of Klebsiella oxytoca beta-lactamase K1 assessed as drug hydrolysis by spectrophotometry relative to cephaloridine; set-up: scale not given: the % may be the effect or the level left
[24] = biological target: T2, Beta-lactamase SHV-1 (Klebsiella pneumoniae); assay: Ratio of Kcat to Km of Klebsiella pneumoniae SHV1 assessed as drug hydrolysis by spectrophotometry relative to cephaloridine; set-up: scale not given: the % may be the effect or the level left
[25] = biological target: Beta-lactamase (Pseudomonas aeruginosa (strain ATCC 15692 / PAO1 / 1C / PRS 101 / LMG12228)) (UniProt P24735); assay: Ratio of Kcat to Km of Pseudomonas aeruginosa 4352 AmpC assessed as drug hydrolysis by spectrophotometry relative to cephaloridine; set-up: scale not given: the % may be the effect or the level left
[26] = biological target: Beta-lactamase VIM-2 (Pseudomonas aeruginosa) (UniProt Q9K2N0); assay: Ratio of Kcat to Km of Pseudomonas aeruginosa VIM2 assessed as drug hydrolysis by spectrophotometry relative to cephaloridine; set-up: scale not given: the % may be the effect or the level left
[27] = biological target: Beta-lactamase VIM-2 (Pseudomonas aeruginosa) (UniProt Q9K2N0); assay: Activity of Pseudomonas aeruginosa VIM2 assessed as drug hydrolysis by spectrophotometry relative to cephaloridine; set-up: scale not given: the % may be the effect or the level left
[28] = biological target: T4, Carbapenem-hydrolyzing beta-lactamase SME-3 (Serratia marcescens); assay: Ratio of Kcat to Km of Serratia marcescens SME3 assessed as drug hydrolysis by spectrophotometry relative to cephaloridine; set-up: scale not given: the % may be the effect or the level left
[29] = biological target: Beta-lactamase (Pseudomonas aeruginosa (strain ATCC 15692 / PAO1 / 1C / PRS 101 / LMG12228)) (UniProt P24735); assay: Activity of Pseudomonas aeruginosa MK-1184 AmpC assessed as drug hydrolysis by spectrophotometry relative to cephaloridine; set-up: scale not given: the % may be the effect or the level left
[30] = biological target: T3, Beta-lactamase (Providencia stuartii); assay: Activity of Providencia stuartii AmpC assessed as drug hydrolysis by spectrophotometry relative to cephaloridine; set-up: scale not given: the % may be the effect or the level left
[31] = biological target: Beta-lactamase (Morganella morganii) (UniProt P94958); assay: Activity of Morganella morganii AmpC assessed as drug hydrolysis by spectrophotometry relative to cephaloridine; set-up: scale not given: the % may be the effect or the level left
[32] = biological target: Beta-lactamase (Morganella morganii) (UniProt P94958); assay: Ratio of Kcat to Km of Morganella morganii AmpC assessed as drug hydrolysis by spectrophotometry relative to cephaloridine; set-up: scale not given: the % may be the effect or the level left
[33] = biological target: Beta-lactamase (Staphylococcus aureus) (UniProt P00807); assay: Activity of Staphylococcus aureus betalactamase PC1 assessed as drug hydrolysis by spectrophotometry relative to cephaloridine; set-up: scale not given: the % may be the effect or the level left

| Compound | Km [1] [µM] | kcat [1] [s⁻¹] | Activity [2] [%] | Activity [3] [%] | Activity [4] [%] | Activity [5] [%] | Activity [6] [%] | Activity [7] [%] | Activity [8] [%] | Activity [9] [%] | Activity [10] [%] | Activity [11] [%] | Activity [12] [%] | Activity [13] [%] | Activity [14] [%] | Activity [15] [%] | Activity [16] [%] | Activity [17] [%] | Activity [18] [%] | Activity [19] [%] | further results |
| --- | --- | --- | --- | --- | --- | --- | --- | --- | --- | --- | --- | --- | --- | --- | --- | --- | --- | --- | --- | --- | --- |
| CC1(C)S[C@@H]2[C@H](NC(=O)Cc3ccccc3)C(=O)N2[C@H]1C(=O)O | 5 | 76 | 210 | 540 | 37 | 0.95 | 290 | 14000 | 1.5e+06 | 160 | 260 | 25 | 670 | 43 | 110 | 61 | 0.73 | 122 | 5600 | 35 | Activity [20]: 750%; Activity [21]: 2700%; kcat/Km [22]: 1.5e+07 M⁻¹ s⁻¹; Activity [23]: 400%; Activity [24]: 2600%; Activity [25]: 1100%; Activity [26]: 570%; Activity [27]: 61%; Activity [28]: 130%; Activity [29]: 91%; Activity [30]: 0.62%; Activity [31]: 26%; Activity [32]: 860%; Activity [33]: 46000% |
| CO/N=C(\C(=O)N[C@@H]1C(=O)N2C(C(=O)[O-])=C(C[N+]3(C)CCCC3)CS[C@H]12)c1csc(N)n1 | 65 | 20 | 54 | 19 | < 0.012 | < 0.028 | < 0.022 | 1.6 | 2.5 | 8.5 | 0.42 | 24 | 0.78 | 0.66 | 5.1 | 0.5 | 0.13 | 0.45 | 0.38 | < 0.1 | Activity [20]: 200%; Activity [21]: 55%; kcat/Km [22]: 310000 M⁻¹ s⁻¹; Activity [23]: 0.84%; Activity [24]: 0.81%; Activity [25]: 0.011%; Activity [26]: 4.1%; Activity [27]: 0.32%; Activity [28]: 0.18%; Activity [29]: 1.5%; Activity [30]: 0.57%; Activity [31]: < 0.047%; Activity [32]: < 0.018%; Activity [33]: 1.4% |
